Results from BigSolDB 2.1.

NC(N)=NC(N)=NCCc1ccccc1
solubility (mole fraction)
Settings | 278.15 K | 283.15 K | 288.15 K | 293.15 K | 298.15 K | 303.15 K | 308.15 K | 313.15 K | 318.15 K | 323.15 K
in 1,4-dioxane | – | – | 0.000166 | 0.000202 | 0.000249 | 0.000312 | 0.000379 | 0.00046 | 0.000551 | 0.00065
in DMF | 0.0158 | 0.0191 | 0.0226 | 0.0256 | 0.0303 | 0.0353 | 0.0411 | 0.0491 | 0.0579 | 0.0655
in DMSO | – | – | – | 0.0217 | 0.025 | 0.0305 | 0.0359 | 0.0431 | 0.0508 | 0.0603
in NMP | 0.0113 | 0.014 | 0.017 | 0.0202 | 0.0235 | 0.028 | 0.0337 | 0.0409 | 0.0486 | 0.0579
in acetonitrile | 0.000211 | 0.00026 | 0.000322 | 0.000398 | 0.000494 | 0.000596 | 0.00071 | 0.00084 | 0.00101 | 0.00119
in ethanol | 0.00183 | 0.0022 | 0.00266 | 0.00322 | 0.00378 | 0.00449 | 0.00524 | 0.00614 | 0.00723 | 0.00847
in ethyl acetate | 0.00157 | 0.00184 | 0.0022 | 0.00265 | 0.00318 | 0.00379 | 0.00445 | 0.00521 | 0.00603 | 0.00695
in ethylene glycol | 0.0033 | 0.00366 | 0.00417 | 0.00481 | 0.00567 | 0.00677 | 0.00774 | 0.00919 | 0.011 | 0.0128
in isobutanol | 0.000518 | 0.00063 | 0.000792 | 0.00095 | 0.00116 | 0.00139 | 0.00167 | 0.00197 | 0.00229 | 0.00265
in isopropanol | 0.000814 | 0.000976 | 0.00118 | 0.00142 | 0.00174 | 0.00208 | 0.00247 | 0.00288 | 0.00334 | 0.00383
in methanol | 0.00237 | 0.0028 | 0.00328 | 0.00385 | 0.00457 | 0.00532 | 0.00623 | 0.00743 | 0.00823 | 0.0103
in n-butanol | 0.000627 | 0.000777 | 0.000923 | 0.00118 | 0.00142 | 0.00167 | 0.00194 | 0.00227 | 0.00265 | 0.00308
in n-propanol | 0.000975 | 0.00116 | 0.00137 | 0.00173 | 0.00208 | 0.00249 | 0.0029 | 0.00341 | 0.00396 | 0.00452
in water | 0.000389 | 0.000481 | 0.000585 | 0.000739 | 0.000888 | 0.00107 | 0.00126 | 0.00148 | 0.00175 | 0.00206
